Laboratory results published in US20160158317A1, “Antimicrobial Peptide Variants and Polynucleotides Encoding Same” (Adenium Biotech A/S, priority 2010, published 2016).
Where a SMILES comes first, the peptide text is derived from it. Bridges are numbered along the chain shown (N, C = ends).

assay: Determination of the protein binding (90% serum, 30 kDa filter, HPLC); format: in vitro ADME; conditions: serum
Protocol: Protein binding assays were performed as follows. The purified peptides were mixed with 90% serum and centrifuged through a 30 kDa filter. The ultra-filtrate and the non filtrated serum samples were quantified by HPLC measurements and the protein binding was subsequently calculated.

Row | SMILES | fraction unbound
1 | CC(C)[C@@H]1NC(=O)[C@H](CCCNC(=N)N)NC(=O)[C@H](Cc2c[nH]cn2)NC(=O)CNC(=O)[C@H](CC(N)=O)NC(=O)[C@H](CCCNC(=N)N)NC(=O)[C@H](Cc2ccc(O)cc2)NC(=O)[C@H](C(C)C)NC(=O)[C@@H]2CSSC[C@H](NC1=O)C(=O)N[C@@H](Cc1c[nH]cn1)C(=O)N[C@@H](CCCNC(=N)N)C(=O)N[C@@H](CCCNC(=N)N)C(=O)N[C@H](C(=O)N[C@@H](CC(N)=O)C(=O)O)CSSC[C@H](NC(=O)[C@H](Cc1ccccc1)NC(=O)CN)C(=O)N[C@@H](Cc1c[nH]c3ccccc13)C(=O)N[C@@H](CC(N)=O)C(=O)N[C@@H](C(C)C)C(=O)N2 [compound 237] (H-GFCWNVCVYRNGHRVCHRRCN-OH; disulfide 3-20, 7-16 (inferred); N-terminus and C-terminus assumed) | 0.6
2 | CC(C)[C@@H]1NC(=O)[C@H](CCCNC(=N)N)NC(=O)[C@H](CCCNC(=N)N)NC(=O)CNC(=O)[C@H](CC(N)=O)NC(=O)[C@H](CCCNC(=N)N)NC(=O)[C@H](Cc2ccc(O)cc2)NC(=O)[C@H](C(C)C)NC(=O)[C@@H]2CSSC[C@H](NC1=O)C(=O)N[C@@H](Cc1c[nH]cn1)C(=O)N[C@@H](CCCNC(=N)N)C(=O)N[C@@H](CCCNC(=N)N)C(=O)N[C@H](C(=O)N[C@@H](CC(N)=O)C(=O)O)CSSC[C@H](NC(=O)[C@H](Cc1ccccc1)NC(=O)CN)C(=O)N[C@@H](Cc1c[nH]c3ccccc13)C(=O)N[C@@H](CC(N)=O)C(=O)N[C@@H](C(C)C)C(=O)N2 [compound 239] (H-GFCWNVCVYRNGRRVCHRRCN-OH; disulfide 3-20, 7-16 (inferred); N-terminus and C-terminus assumed) | 0.35
3 | CC(C)[C@@H]1NC(=O)[C@H](CCCNC(=N)N)NC(=O)[C@H](Cc2ccc(O)cc2)NC(=O)CNC(=O)[C@H](CC(N)=O)NC(=O)[C@H](CCCNC(=N)N)NC(=O)[C@H](Cc2ccc(O)cc2)NC(=O)[C@H](C(C)C)NC(=O)[C@@H]2CSSC[C@H](NC1=O)C(=O)N[C@@H](Cc1c[nH]cn1)C(=O)N[C@@H](CCCNC(=N)N)C(=O)N[C@@H](CCCNC(=N)N)C(=O)N[C@H](C(=O)N[C@@H](CC(N)=O)C(=O)O)CSSC[C@H](NC(=O)[C@H](Cc1ccccc1)NC(=O)CN)C(=O)N[C@@H](Cc1c[nH]c3ccccc13)C(=O)N[C@@H](CC(N)=O)C(=O)N[C@@H](C(C)C)C(=O)N2 [compound 242] (H-GFCWNVCVYRNGYRVCHRRCN-OH; disulfide 3-20, 7-16 (inferred); N-terminus and C-terminus assumed) | 0.17
4 | CC(C)[C@@H]1NC(=O)CNC(=O)[C@H](CC(N)=O)NC(=O)[C@H](CCCNC(=N)N)NC(=O)[C@H](Cc2ccc(O)cc2)NC(=O)[C@H](C(C)C)NC(=O)[C@@H]2CSSC[C@H](NC(=O)[C@H](Cc3ccccc3)NC(=O)[C@H](CCCNC(=N)N)NC1=O)C(=O)N[C@@H](Cc1c[nH]cn1)C(=O)N[C@@H](CCCNC(=N)N)C(=O)N[C@@H](CCCNC(=N)N)C(=O)N[C@H](C(=O)N[C@@H](CC(N)=O)C(=O)O)CSSC[C@H](NC(=O)[C@H](Cc1ccccc1)NC(=O)CN)C(=O)N[C@@H](Cc1c[nH]c3ccccc13)C(=O)N[C@@H](CC(N)=O)C(=O)N[C@@H](C(C)C)C(=O)N2 [compound 245] (H-GFCWNVCVYRNGVRFCHRRCN-OH; disulfide 3-20, 7-16 (inferred); N-terminus and C-terminus assumed) | 0.15
5 | CC(C)[C@@H]1NC(=O)CNC(=O)[C@H](CC(N)=O)NC(=O)[C@H](CCCNC(=N)N)NC(=O)[C@H](Cc2ccc(O)cc2)NC(=O)[C@H](C(C)C)NC(=O)[C@@H]2CSSC[C@H](NC(=O)CNC(=O)[C@H](CCCNC(=N)N)NC1=O)C(=O)N[C@@H](Cc1c[nH]cn1)C(=O)N[C@@H](CCCNC(=N)N)C(=O)N[C@@H](CCCNC(=N)N)C(=O)N[C@H](C(=O)N[C@@H](CC(N)=O)C(=O)O)CSSC[C@H](NC(=O)[C@H](Cc1ccccc1)NC(=O)CN)C(=O)N[C@@H](Cc1c[nH]c3ccccc13)C(=O)N[C@@H](CC(N)=O)C(=O)N[C@@H](C(C)C)C(=O)N2 [compound 246] (H-GFCWNVCVYRNGVRGCHRRCN-OH; disulfide 3-20, 7-16 (inferred); N-terminus and C-terminus assumed) | 0.21
6 | CC[C@H](C)[C@@H]1NC(=O)[C@H](CCCNC(=N)N)NC(=O)[C@H](C(C)C)NC(=O)CNC(=O)[C@H](CC(N)=O)NC(=O)[C@H](CCCNC(=N)N)NC(=O)[C@H](Cc2ccc(O)cc2)NC(=O)[C@H](C(C)C)NC(=O)[C@@H]2CSSC[C@H](NC1=O)C(=O)N[C@@H](Cc1c[nH]cn1)C(=O)N[C@@H](CCCNC(=N)N)C(=O)N[C@@H](CCCNC(=N)N)C(=O)N[C@H](C(=O)N[C@@H](CC(N)=O)C(=O)O)CSSC[C@H](NC(=O)[C@H](Cc1ccccc1)NC(=O)CN)C(=O)N[C@@H](Cc1c[nH]c3ccccc13)C(=O)N[C@@H](CC(N)=O)C(=O)N[C@@H](C(C)C)C(=O)N2 [compound 248] (H-GFCWNVCVYRNGVRICHRRCN-OH; disulfide 3-20, 7-16 (inferred); N-terminus and C-terminus assumed) | 0.42
7 | CC(C)C[C@@H]1NC(=O)[C@H](CCCNC(=N)N)NC(=O)[C@H](C(C)C)NC(=O)CNC(=O)[C@H](CC(N)=O)NC(=O)[C@H](CCCNC(=N)N)NC(=O)[C@H](Cc2ccc(O)cc2)NC(=O)[C@H](C(C)C)NC(=O)[C@@H]2CSSC[C@H](NC1=O)C(=O)N[C@@H](Cc1c[nH]cn1)C(=O)N[C@@H](CCCNC(=N)N)C(=O)N[C@@H](CCCNC(=N)N)C(=O)N[C@H](C(=O)N[C@@H](CC(N)=O)C(=O)O)CSSC[C@H](NC(=O)[C@H](Cc1ccccc1)NC(=O)CN)C(=O)N[C@@H](Cc1c[nH]c3ccccc13)C(=O)N[C@@H](CC(N)=O)C(=O)N[C@@H](C(C)C)C(=O)N2 [compound 249] (H-GFCWNVCVYRNGVRLCHRRCN-OH; disulfide 3-20, 7-16 (inferred); N-terminus and C-terminus assumed) | 0.17
8 | CC(C)[C@@H]1NC(=O)CNC(=O)[C@H](CC(N)=O)NC(=O)[C@H](CCCNC(=N)N)NC(=O)[C@H](Cc2ccc(O)cc2)NC(=O)[C@H](C(C)C)NC(=O)[C@@H]2CSSC[C@H](NC(=O)[C@H](CC(N)=O)NC(=O)[C@H](CCCNC(=N)N)NC1=O)C(=O)N[C@@H](Cc1c[nH]cn1)C(=O)N[C@@H](CCCNC(=N)N)C(=O)N[C@@H](CCCNC(=N)N)C(=O)N[C@H](C(=O)N[C@@H](CC(N)=O)C(=O)O)CSSC[C@H](NC(=O)[C@H](Cc1ccccc1)NC(=O)CN)C(=O)N[C@@H](Cc1c[nH]c3ccccc13)C(=O)N[C@@H](CC(N)=O)C(=O)N[C@@H](C(C)C)C(=O)N2 [compound 251] (H-GFCWNVCVYRNGVRNCHRRCN-OH; disulfide 3-20, 7-16 (inferred); N-terminus and C-terminus assumed) | 0.29
9 | CC(C)[C@@H]1NC(=O)CNC(=O)[C@H](CC(N)=O)NC(=O)[C@H](CCCNC(=N)N)NC(=O)[C@H](Cc2ccc(O)cc2)NC(=O)[C@H](C(C)C)NC(=O)[C@@H]2CSSC[C@H](NC(=O)[C@H](CCCNC(=N)N)NC(=O)[C@H](CCCNC(=N)N)NC1=O)C(=O)N[C@@H](Cc1c[nH]cn1)C(=O)N[C@@H](CCCNC(=N)N)C(=O)N[C@@H](CCCNC(=N)N)C(=O)N[C@H](C(=O)N[C@@H](CC(N)=O)C(=O)O)CSSC[C@H](NC(=O)[C@H](Cc1ccccc1)NC(=O)CN)C(=O)N[C@@H](Cc1c[nH]c3ccccc13)C(=O)N[C@@H](CC(N)=O)C(=O)N[C@@H](C(C)C)C(=O)N2 [compound 252] (H-GFCWNVCVYRNGVRRCHRRCN-OH; disulfide 3-20, 7-16 (inferred); N-terminus and C-terminus assumed) | 0.24
10 | CC(C)[C@@H]1NC(=O)CNC(=O)[C@H](CC(N)=O)NC(=O)[C@H](CCCNC(=N)N)NC(=O)[C@H](Cc2ccc(O)cc2)NC(=O)[C@H](C(C)C)NC(=O)[C@@H]2CSSC[C@H](NC(=O)[C@H](Cc3c[nH]c4ccccc34)NC(=O)[C@H](CCCNC(=N)N)NC1=O)C(=O)N[C@@H](Cc1c[nH]cn1)C(=O)N[C@@H](CCCNC(=N)N)C(=O)N[C@@H](CCCNC(=N)N)C(=O)N[C@H](C(=O)N[C@@H](CC(N)=O)C(=O)O)CSSC[C@H](NC(=O)[C@H](Cc1ccccc1)NC(=O)CN)C(=O)N[C@@H](Cc1c[nH]c3ccccc13)C(=O)N[C@@H](CC(N)=O)C(=O)N[C@@H](C(C)C)C(=O)N2 [compound 253] (H-GFCWNVCVYRNGVRWCHRRCN-OH; disulfide 3-20, 7-16 (inferred); N-terminus and C-terminus assumed) | 0.06
11 | CC(C)[C@@H]1NC(=O)CNC(=O)[C@H](CC(N)=O)NC(=O)[C@H](CCCNC(=N)N)NC(=O)[C@H](Cc2ccc(O)cc2)NC(=O)[C@H](C(C)C)NC(=O)[C@@H]2CSSC[C@H](NC(=O)[C@H](Cc3ccc(O)cc3)NC(=O)[C@H](CCCNC(=N)N)NC1=O)C(=O)N[C@@H](Cc1c[nH]cn1)C(=O)N[C@@H](CCCNC(=N)N)C(=O)N[C@@H](CCCNC(=N)N)C(=O)N[C@H](C(=O)N[C@@H](CC(N)=O)C(=O)O)CSSC[C@H](NC(=O)[C@H](Cc1ccccc1)NC(=O)CN)C(=O)N[C@@H](Cc1c[nH]c3ccccc13)C(=O)N[C@@H](CC(N)=O)C(=O)N[C@@H](C(C)C)C(=O)N2 [compound 254] (H-GFCWNVCVYRNGVRYCHRRCN-OH; disulfide 3-20, 7-16 (inferred); N-terminus and C-terminus assumed) | 0.23
12 | CC(C)[C@@H]1NC(=O)CNC(=O)[C@H](CC(N)=O)NC(=O)[C@H](CCCNC(=N)N)NC(=O)[C@H](CCCCN)NC(=O)[C@H](C(C)C)NC(=O)[C@@H]2CSSC[C@H](NC(=O)[C@H](C(C)C)NC(=O)[C@H](CCCNC(=N)N)NC1=O)C(=O)N[C@@H](Cc1ccc(O)cc1)C(=O)N[C@@H](CCCNC(=N)N)C(=O)N[C@@H](CCCNC(=N)N)C(=O)N[C@H](C(=O)N[C@@H](CC(N)=O)C(=O)O)CSSC[C@H](NC(=O)[C@H](Cc1ccccc1)NC(=O)CN)C(=O)N[C@@H](Cc1c[nH]c3ccccc13)C(=O)N[C@@H](CC(N)=O)C(=O)N[C@@H](C)C(=O)N2 [compound 258] (H-GFCWNACVKRNGVRVCYRRCN-OH; disulfide 3-20, 7-16 (inferred); N-terminus and C-terminus assumed) | 0.11
